Assays:
[1] = test system: Jurkat (leukaemia); experiment: apoptotic DNA fragmentation by DNA gel electrophoresis; format: cell-based, human
Method: The DNA fragmentation was determined by means of DNA gel electrophoresis. Jurkat (leukaemia) was used as the tumour cell line.
Apoptotic DNA fragments were isolated by means of lysis with NP 40. The cells were washed and pelleted after 4 hours or after 24 hours, respectively. The cell pellet was incubated for 10 sec. with lysis buffer (1% NP 40, Sigma; 20 mM EDTA, Sigma; 50 mM Tris-HCl, Sigma). the lysates were mixed with 1% SDS (Sigma), incubated at 56° C. for 2 h with RNase (5 μg/μl) (Boehringer), and digested with proteinase K (Sigma) (2.5 μg/μl) for 2 h at 37° C. After 10 M ammonium acetate had been added, the DNA was precipitated with 100% ethanol at −20° C. and analysed by means of gel electrophoresis on 1% agarose gels.

[2] = test system: T cells; experiment: proliferation of T cells; format: cell-based
[3] = test system: keratinocytes (HaCaT); experiment: induction of apoptosis in keratinocytes; format: cell-based
[4] = test system: HaCaT cells; experiment: proliferation of keratinocytes, 3H-thymidine incorporation; format: cell-based, human
[5] = test system: T cells; experiment: induction of apoptosis in T cells; format: cell-based
[6] = test system: epidermal cells (EC) and T cells (TC); experiment: MECLR in vitro, EC or TC preincubated with hyperforin; conditions: FIG. 9
Method: The roof of the blister was dissected out under sterile conditions using a scalpel and a suspension of epidermal cells (EC) was prepared by treating with trypsin. […] After that, the cells were washed and 50,000 EC were cocultured for 6 days (37° C., 5% CO2) with 150,000 TC (T cells) in 1640 RPMI containing 10% foetal calf serum (FCS) containing 1% penicillin-streptomycin in 96-well flat-bottomed microtitre plates (Greiner). 1 μCurie of ^3H-thymidine (Amersham) was then added per well and, after 18 h, the incorporated radioactivity was measured in a scintillation counter (Canberra Packard). The radioactivity which is measured is proportional to the replication of the DNA in the cells.

## CC(=O)O[C@H]1C(=O)[C@@]2(C)[C@H]([C@H](OC(=O)c3ccccc3)[C@]3(O)C[C@H](OC(=O)[C@H](O)[C@@H](NC(=O)c4ccccc4)c4ccccc4)C(C)=C1C3(C)C)[C@]1(OC(C)=O)CO[C@@H]1C[C@@H]2O [taxol, reference compound]
[1]; 10 μM, 4 hours
  apoptotic DNA fragmentation: +
[1]; 10 μM, 24 hours
  apoptotic DNA fragmentation: ++

## Cc1cc(O)c2c(=O)c3c(O)cc(O)c4c5c(O)cc(O)c6c(=O)c7c(O)cc(C)c8c1c2c(c34)c(c78)c65 [hypericin]
[2]
  effect on proliferation of T cells: proliferation-inhibiting effect
[3]
  induction of apoptosis: can induce apoptasis
[4]
  effect on proliferation of keratinocytes (HaCaT): proliferation-inhibiting effect
[5]
  induction of apoptosis: can induce apoptasis

## CC(C)=CCC[C@]1(C)[C@@H](CC=C(C)C)CC2(CC=C(C)C)C(=O)C(CC=C(C)C)=C(O)C1(C(=O)C(C)C)C2=O (stereo partly shown) [hyperforin]
[4]; human keratinocytes
  concentration from which a proliferation-inhibiting effect is seen: ≥ 100 ng/mL
[4]; hyperforin 100 μg/ml, 24 h, FIG. 6
  proliferation of HaCaT cells: virtually completely inhibited
[6]; EC incubated 24 h with 24 μg of hyperforin/ml
  proliferation in MECLR: significantly inhibits proliferation
[6]; TC incubated 24 h with 24 μg of hyperforin/ml
  proliferation in MECLR: significantly inhibits proliferation
[1]; 40 μM, 4 hours
  apoptotic DNA fragmentation: ++
[1]; 40 μM, 24 hours
  apoptotic DNA fragmentation: ++
[1]; hyperforin 40 μM vs taxol 10 μM, fully developed after only 4 hours
  speed of apoptosis induction compared with taxol: induces apoptosis in tumour cells more rapidly than does taxol

Source: patent US7179495B1 (Universitaetsklinikum Freiburg, priority 1998, dated 2007)
